{
  "source": "patent US11707511B2",
  "about": "“Vaccine compositions and methods of using the same” (The Board of Supervisors of Louisiana State University and …, priority 2017, dated 2023)",
  "key": {"[1]": {"tested_on": "C. albicans 3153A", "experiment": "Amp B - antibody combination therapy of mice with disseminated candidiasis", "type": "in vivo, Candida albicans", "settings": "BALB/c mice, Amp B 0.5 mg/kg", "experimental": "Mice were then given by i.v. of 5×10e5 of C. albicans 3153A yeast cells, 8 hour later the mice received i.p. 0.5 mg Amp B/kg body weight with each mAb (E2-9, M2-4, 2D5F7 and 2B10C1). Mice without any treatment and mice treated with antifungal drug alone were used as controls. Survival curves were scored and MST were measured."}, "[2]": {"tested_on": "HLA-DR types", "settings": "of the most common HLA-DR types tested to date; cited from earlier work"}, "[3]": {"settings": "when incorporated into several peptide antigens; average; cited from earlier work"}},
  "note": "Entries after “also recorded” stand apart in the source; their conditions may differ.",
  "data": [
    {"compound": "C[C@@H]1[C@H](O)[C@@H](C)/C=C/C=C/C=C/C=C/C=C/C=C/C=C/[C@H](O[C@@H]2O[C@H](C)[C@@H](O)[C@H](N)[C@@H]2O)C[C@@H]2O[C@](O)(C[C@@H](O)C[C@@H](O)[C@H](O)CC[C@@H](O)C[C@@H](O)CC(=O)O[C@H]1C)C[C@H](O)[C@H]2C(=O)O", "note": "[Amp B, amphotericin B]", "values": [
      {"measurement": "therapeutic effect / survival time", "setting": "[1]; treatment 8 hours post-infection, in words", "value": "the same susceptible to the disease as mice that received no Amp B; also recorded: no therapeutic effect"},
      {"measurement": "MST (mean survival times)", "setting": "[1]; Table 16, 5×10e5 C. albicans 3153A i.v., treatment i.p. 8 hours post-infection", "value": "14.5 ± 3.7", "unit": "days"}
    ]},
    {"compound": "AKFVAAWTLKAAA [PADRE]", "values": [
      {"measurement": "HLA-DR types bound with high or intermediate affinity", "setting": "[2]", "value": "15 of 16"}
    ]},
    {"compound": "RGD", "values": [
      {"measurement": "enhancement of antibody titers", "setting": "[3]", "value": 10, "unit": "times"}
    ]}
  ]
}
